Entries after “also recorded” stand apart in the source; their conditions may differ.
How the values were obtained:
MAO-A = conditions: cited from earlier work
BChE from equine serum = biological target: T1, BChE from equine serum (Equus caballus, UniProt P81908); experiment: biochemical; conditions: means ± SD of duplicate experiments, read-out: Residual activity at 10 µM (%) BChE
T1 construct: BChE from equine serum; purchased Sigma-Aldrich (USA); host or cells: equine serum
Protocol: (§1) All other chemicals were of reagent grade.
(§2) MAO-A and MAO-B inhibitory activities were determined using a continuous spectrophotometric method as described previously. […] AChE activities were assayed as described by Ellman et al., with slight modification. The inhibitory activities of AChE and BChE were measured after the enzyme was preincubated with inhibitors for 15 min and before adding DTNB and the substrate (ATCI and BTCI, respectively). […] Reaction rates were expressed as changes in absorbance per minute.

[1] = biological target: T2, AChE from Electrophorus electricus (Electrophorus electricus, UniProt O42275); experiment: biochemical; conditions: means ± SD of duplicate experiments; for remaining activity at 10 µM: read-out: Residual activity at 10 µM (%) AChE
T2 construct: AChE from Electrophorus electricus; purchased Sigma-Aldrich (USA)

BACE-1 = biological target: T3, BACE-1 (Homo sapiens, UniProt P56817); experiment: BACE-1 Activity Detection Kit, fluorescence assay; assay type: biochemical; conditions: means ± SD of duplicate experiments, read-out: Residual activity at 10 µM (%) BACE-1
T3 construct: purchased Sigma-Aldrich (USA)

Recombinant human MAO-A [2] = biological target: T4, Recombinant human MAO-A (Homo sapiens, UniProt P21397); experiment: biochemical; assay type: biochemical; conditions: for remaining activity at 10 µM / IC50: means ± SD of duplicate experiments; for remaining activity at 10 µM: read-out: Residual activity at 10 µM (%) MAO-A; for SI (selectivity index): ratio of high IC50/low IC50 for MAO inhibition (compound 1: MAO-A versus MAO-B; compound 2: MAO-B versus MAO-A)
T4 construct: purchased Sigma-Aldrich (USA)
T4 sequence (P21397 1-527): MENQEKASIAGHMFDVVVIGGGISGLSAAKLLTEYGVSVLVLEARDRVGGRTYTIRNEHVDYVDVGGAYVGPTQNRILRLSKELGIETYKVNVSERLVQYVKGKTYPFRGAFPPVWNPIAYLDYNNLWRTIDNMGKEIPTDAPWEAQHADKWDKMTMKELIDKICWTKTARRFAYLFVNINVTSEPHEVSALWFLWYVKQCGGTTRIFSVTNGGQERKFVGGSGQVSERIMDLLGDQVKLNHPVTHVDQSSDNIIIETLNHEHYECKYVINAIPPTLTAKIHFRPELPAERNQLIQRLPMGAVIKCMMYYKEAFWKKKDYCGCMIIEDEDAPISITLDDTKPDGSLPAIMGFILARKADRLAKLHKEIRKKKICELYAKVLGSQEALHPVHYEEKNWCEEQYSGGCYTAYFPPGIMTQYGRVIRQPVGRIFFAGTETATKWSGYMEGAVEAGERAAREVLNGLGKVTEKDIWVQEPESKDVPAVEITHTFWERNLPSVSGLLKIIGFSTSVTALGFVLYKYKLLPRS
Protocol: as §1, §2

human MAO-B [3] = biological target: T5, human MAO-B (Homo sapiens, UniProt P27338); experiment: biochemical; assay type: biochemical; conditions: for remaining activity at 10 µM / IC50: means ± SD of duplicate experiments; for remaining activity at 10 µM: read-out: Residual activity at 10 µM (%) MAO-B
T5 construct: purchased Sigma-Aldrich (USA)
T5 sequence (P27338 1-520): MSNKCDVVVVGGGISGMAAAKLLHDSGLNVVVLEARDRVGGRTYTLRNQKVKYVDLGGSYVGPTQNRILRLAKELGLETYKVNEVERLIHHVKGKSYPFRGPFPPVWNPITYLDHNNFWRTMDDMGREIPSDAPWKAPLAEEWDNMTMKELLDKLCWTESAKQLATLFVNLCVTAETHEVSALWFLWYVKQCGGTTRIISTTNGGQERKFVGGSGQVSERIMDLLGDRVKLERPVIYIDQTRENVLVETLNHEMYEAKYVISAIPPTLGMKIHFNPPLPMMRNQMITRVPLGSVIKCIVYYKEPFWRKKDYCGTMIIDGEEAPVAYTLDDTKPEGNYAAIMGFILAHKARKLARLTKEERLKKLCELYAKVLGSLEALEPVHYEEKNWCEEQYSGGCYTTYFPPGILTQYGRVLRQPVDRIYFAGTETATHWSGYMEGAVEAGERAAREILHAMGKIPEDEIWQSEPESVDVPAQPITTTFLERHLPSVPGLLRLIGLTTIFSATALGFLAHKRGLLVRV
Protocol: as §1, §2

Recombinant human MAO-A [4] = biological target: T4, Recombinant human MAO-A; experiment: Reversibility of MAO-A inhibition by dialysis; assay type: biochemical; conditions: for Reversibility of MAO-A inhibition: dialysis; for Relative activity of MAO-A, dialyzed (AD) / Relative activity of MAO-A, undialyzed (AU): inhibitor at twice the IC50, preincubated 30 min; for Relative activity of MAO-A, dialyzed (AD): after dialysis
Protocol: (§3) After the compounds or reference inhibitors were preincubated with MAOs for 30 min, residual activities for undialyzed and dialyzed samples were measured. The relative values for undialyzed (AU) and dialyzed (AD) activities were then calculated, and the reversibilities were determined by comparing the AU and AD values of the inhibitors with those of the references.
(§4) Results are the averages of experiments performed in duplicate.

Recombinant human MAO-A [5] = biological target: T4, Recombinant human MAO-A; experiment: MAO-A inhibition kinetics (Lineweaver-Burk and secondary plots); assay type: biochemical; conditions: for Mode of MAO-A inhibition: Lineweaver-Burk plots; for Ki: secondary plots of Lineweaver-Burk slopes, kynuramine 0.0075-0.12 mM
Protocol: (§5) Kinetic parameters, inhibition types, and […] (Ki) values of potent MAO-A and MAO-B inhibitors (i.e., compound 1 for MAO-A; compound 2 for MAO-A and MAO-B) were determined, as previously described. […]; Inhibitory patterns and Ki values were determined using Lineweaver-Burk plots and secondary plots of their slopes.
(§6) Modes of MAO-A inhibition by compound 1 and modes of MAO-A and MAO-B inhibition by compound 2 were investigated using Lineweaver-Burk plots. […].
(§7) Fig. 3 Lineweaver-Burk plots of monoamine oxidase (MAO)-A inhibition by compound 1 (A) and of MAOA and MAO-B inhibition by compound 2 (C and E for respective MOA isoforms) as well as their respective secondary plots, as slopes of Lineweaver-Burk plots vs. inhibitor concentrations (B, D, and F). […]. […] The initial velocity was expressed as an increase in absorbance per min.

MAO-B = conditions: cited from earlier work
human MAO-B [6] = biological target: T5, human MAO-B; experiment: Reversibility of MAO-B inhibition by dialysis; assay type: biochemical
Protocol: as §3, §4

human MAO-B [7] = biological target: T5, human MAO-B; experiment: MAO-B inhibition kinetics (Lineweaver-Burk and secondary plots); assay type: biochemical
Protocol: as §5, §6, §7

T2 sequence (O42275 24-633): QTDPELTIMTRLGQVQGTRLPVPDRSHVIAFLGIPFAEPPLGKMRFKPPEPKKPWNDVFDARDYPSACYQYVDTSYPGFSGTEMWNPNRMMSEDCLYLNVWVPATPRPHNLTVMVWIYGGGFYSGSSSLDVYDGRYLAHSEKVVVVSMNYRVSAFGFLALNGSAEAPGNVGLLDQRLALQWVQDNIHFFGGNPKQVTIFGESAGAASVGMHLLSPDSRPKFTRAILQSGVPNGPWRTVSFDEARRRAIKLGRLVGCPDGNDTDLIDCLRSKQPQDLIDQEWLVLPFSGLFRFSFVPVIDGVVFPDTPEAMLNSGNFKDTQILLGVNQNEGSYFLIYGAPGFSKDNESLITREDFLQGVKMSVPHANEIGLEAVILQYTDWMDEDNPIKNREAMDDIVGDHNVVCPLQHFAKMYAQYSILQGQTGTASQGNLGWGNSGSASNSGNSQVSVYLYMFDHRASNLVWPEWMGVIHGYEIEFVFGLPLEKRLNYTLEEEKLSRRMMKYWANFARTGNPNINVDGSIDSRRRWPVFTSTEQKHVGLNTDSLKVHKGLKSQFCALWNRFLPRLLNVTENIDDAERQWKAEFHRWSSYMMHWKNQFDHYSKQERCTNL
T1 sequence (P81908 whole entry): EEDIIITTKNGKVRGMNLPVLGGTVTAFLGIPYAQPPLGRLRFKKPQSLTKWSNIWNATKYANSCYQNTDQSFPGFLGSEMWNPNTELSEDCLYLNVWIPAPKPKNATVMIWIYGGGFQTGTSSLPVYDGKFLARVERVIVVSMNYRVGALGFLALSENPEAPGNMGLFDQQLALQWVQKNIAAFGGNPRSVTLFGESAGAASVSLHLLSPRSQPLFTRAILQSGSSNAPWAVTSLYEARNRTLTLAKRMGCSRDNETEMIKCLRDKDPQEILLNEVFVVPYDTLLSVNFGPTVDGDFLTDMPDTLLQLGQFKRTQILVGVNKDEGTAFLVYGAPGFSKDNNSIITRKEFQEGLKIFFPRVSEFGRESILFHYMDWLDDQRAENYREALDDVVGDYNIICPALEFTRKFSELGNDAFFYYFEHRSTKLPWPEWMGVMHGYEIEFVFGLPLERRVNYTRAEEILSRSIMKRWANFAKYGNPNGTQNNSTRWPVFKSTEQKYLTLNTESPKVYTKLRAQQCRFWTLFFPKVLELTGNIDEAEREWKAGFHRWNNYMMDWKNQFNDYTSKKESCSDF
T3 sequence (P56817 46-501, species assumed): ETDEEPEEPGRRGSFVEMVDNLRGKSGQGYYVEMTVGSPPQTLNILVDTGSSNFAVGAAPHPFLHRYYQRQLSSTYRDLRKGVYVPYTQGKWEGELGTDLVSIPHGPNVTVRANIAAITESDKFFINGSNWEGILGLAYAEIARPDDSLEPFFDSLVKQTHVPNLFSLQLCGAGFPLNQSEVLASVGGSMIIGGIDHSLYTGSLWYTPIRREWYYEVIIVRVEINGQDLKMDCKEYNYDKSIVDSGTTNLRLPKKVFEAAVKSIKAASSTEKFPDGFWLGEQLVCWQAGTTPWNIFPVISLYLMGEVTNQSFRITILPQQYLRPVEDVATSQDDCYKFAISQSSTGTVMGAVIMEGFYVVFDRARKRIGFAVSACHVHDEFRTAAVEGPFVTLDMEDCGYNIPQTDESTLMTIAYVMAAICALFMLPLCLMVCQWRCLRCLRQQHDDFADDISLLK

Question: With `O=c1oc2cc(O)ccc2c2ccccc12` [UroB] as the compound, how does the IC50 (MAO-A) read?
Answer: Its IC50 is 0.88 µM.

Question: For `COc1cc(O)c2c(=O)oc3cc(O)cc(C)c3c2c1` [alternariol monomethyl ether], which IC50 (MAO-A) is on record?
Answer: Its IC50 is 1.71 µM.

Question: For `COc1cccc2nc3ccccc3nc12` [Compound 3, 1-methoxyphenazine], which remaining activity at 10 µM (BChE from equine serum) is on record?
Answer: Its remaining activity at 10 µM is 97 ± 2.72%.

Question: What about the remaining activity at 10 µM [1] of the same compound?
Answer: The remaining activity at 10 µM was 83 ± 8.24%.

Question: What about the remaining activity at 10 µM (BACE-1) of the same compound?
Answer: The remaining activity at 10 µM was 79.9 ± 0.73%.

Question: And the “Inhibitory activity against MAO-A (in words)” value (Recombinant human MAO-A [2])?
Answer: The value was “did not inhibit; also recorded: little inhibitory activity”.

Question: And the remaining activity at 10 µM (Recombinant human MAO-A [2])?
Answer: The remaining activity at 10 µM was 93.6 ± 4.11%.

Question: And the “Inhibitory activity against MAO-B (in words)” value (human MAO-B [3])?
Answer: The value was “did not inhibit; also recorded: little inhibitory activity”.

Question: What about the remaining activity at 10 µM (human MAO-B [3]) of the same compound?
Answer: The remaining activity at 10 µM was 96.9 ± 2.65%.

Question: Which results are given for `CC(C)c1cc(=O)c2c(O)cc(O)cc2o1` [Compound 1, 5,7-dihydroxy-2-isopropyl-4H-chromen-4-one]?
Answer: remaining activity at 10 µM (BChE from equine serum): 80.7 ± 3.46%; remaining activity at 10 µM [1]: 70.5 ± 6.31%; IC50 [1]: 31.7 ± 2.39 µM; Reversibility of MAO-A inhibition (Recombinant human MAO-A [4]): reversible inhibitor; Relative activity of MAO-A, dialyzed (AD) (Recombinant human MAO-A [4]): 90.9%; Relative activity of MAO-A, undialyzed (AU) (Recombinant human MAO-A [4]): 35.5%; Mode of MAO-A inhibition (Recombinant human MAO-A [5]): competitive inhibitor; Ki (Recombinant human MAO-A [5]): 0.94 ± 0.28 µM; remaining activity at 10 µM (BACE-1): 85.8 ± 0.28%; remaining activity at 10 µM (Recombinant human MAO-A [2]): 25.4 ± 2.24%; IC50 (Recombinant human MAO-A [2]): 2.7 ± 0.034 µM; SI (selectivity index) (Recombinant human MAO-A [2]): 10.0; remaining activity at 10 µM (human MAO-B [3]): 71.5 ± 5.45%; IC50 (human MAO-B [3]): 27 ± 2.78 µM

Question: Which IC50 (MAO-A) does the source give for `O=c1oc2cc(O)ccc2c2ccc(O)cc12` [UroA] here?
Answer: Its IC50 is 5.88 µM.

Question: What does the source list for `CC1CC(=O)c2c(O)cccc2O1` (stereo not shown) [HMC, 5-hydroxy-2-methyl-chroman-4-one]?
Answer: IC50 (MAO-A): 14 µM; IC50 (MAO-B): 3.23 µM

Question: For `CN1C(=N)N(C)/C(=C/c2c[nH]c3ccccc23)C1=O` [aplysinopsin], which IC50 (MAO-A) is on record?
Answer: Its IC50 is 0.0056 µM.

Question: Which IC50 (MAO-A) does the source give for `O=c1oc2cc(O)ccc2c2cc(O)c(O)cc12` [Ur°C] here?
Answer: The IC50 was 29.6 µM.

Question: With `CCC(C)c1cc(=O)c2c(O)cc(O)cc2o1` (stereo not shown) [Compound 2, 5,7-dihydroxy-2-(1-methylpropyl)-4H-chromen-4-one] as the compound, how does the remaining activity at 10 µM (BChE from equine serum) read?
Answer: Its remaining activity at 10 µM is 96.4 ± 4.27%.

Question: And the remaining activity at 10 µM [1]?
Answer: The remaining activity at 10 µM was 88.3 ± 2.54%.

Question: What about the “Reversibility of MAO-B inhibition” value (human MAO-B [6]; dialysis) of the same compound?
Answer: The value was “reversible inhibitor”.

Question: What about the “Relative activity of MAO-B, dialyzed (AD)” value (human MAO-B [6]; inhibitor at twice the IC50, preincubated 30 min, after dialysis) of the same compound?
Answer: Its value is 76.7%.

Question: And the “Relative activity of MAO-B, undialyzed (AU)” value (human MAO-B [6]; inhibitor at twice the IC50, preincubated 30 min, undialyzed)?
Answer: The value was 34.8%.

Question: And the “Mode of MAO-B inhibition” value (human MAO-B [7]; Lineweaver-Burk plots)?
Answer: Its value is “competitive inhibitor”.

Question: And the Ki (human MAO-B [7]; secondary plots of Lineweaver-Burk slopes, benzylamine 0.03-0.6 mM)?
Answer: Its Ki is 1.89 ± 0.014 µM.

Question: And the “Reversibility of MAO-A inhibition” value (Recombinant human MAO-A [4])?
Answer: Its value is “reversible inhibitor”.

Question: And the “Relative activity of MAO-A, dialyzed (AD)” value (Recombinant human MAO-A [4])?
Answer: Its value is 79.4%.

Question: What about the “Relative activity of MAO-A, undialyzed (AU)” value (Recombinant human MAO-A [4]) of the same compound?
Answer: The value was 35.6%.

Question: What about the “Mode of MAO-A inhibition” value (Recombinant human MAO-A [5]) of the same compound?
Answer: The value was “competitive inhibitor”.

Question: What about the Ki (Recombinant human MAO-A [5]) of the same compound?
Answer: Its Ki is 3.57 ± 0.6 µM.

Question: What about the remaining activity at 10 µM (BACE-1) of the same compound?
Answer: Its remaining activity at 10 µM is 98.3 ± 0.27%.

Question: What about the remaining activity at 10 µM (Recombinant human MAO-A [2]) of the same compound?
Answer: Its remaining activity at 10 µM is 37.8 ± 0.82%.

Question: What about the IC50 (Recombinant human MAO-A [2]) of the same compound?
Answer: Its IC50 is 6.92 ± 0.067 µM.

Question: What about the “SI (selectivity index)” value (Recombinant human MAO-A [2]) of the same compound?
Answer: The value was 2.02.

Question: And the remaining activity at 10 µM (human MAO-B [3])?
Answer: Its remaining activity at 10 µM is 34.4 ± 7.95%.

Question: And the IC50 (human MAO-B [3])?
Answer: Its IC50 is 3.42 ± 1.47 µM.
